The source of these data is patent publication US20200247794A1, “PHARMACOPHORES, COMPOUNDS AND METHODS HAVING APPLICATION IN THE TREATMENT OF CANCER THROUGH INHIBITION OF CYP17A1 AND CYP19A1” (MANGOSUTHU UNIVERSITY OF TECHNOLOGY, priority 2015, published 2020).

For data set [1], the target named is T1, CYP17A1 (Homo sapiens, UniProt P05093).
T1 sequence (P05093 1-508): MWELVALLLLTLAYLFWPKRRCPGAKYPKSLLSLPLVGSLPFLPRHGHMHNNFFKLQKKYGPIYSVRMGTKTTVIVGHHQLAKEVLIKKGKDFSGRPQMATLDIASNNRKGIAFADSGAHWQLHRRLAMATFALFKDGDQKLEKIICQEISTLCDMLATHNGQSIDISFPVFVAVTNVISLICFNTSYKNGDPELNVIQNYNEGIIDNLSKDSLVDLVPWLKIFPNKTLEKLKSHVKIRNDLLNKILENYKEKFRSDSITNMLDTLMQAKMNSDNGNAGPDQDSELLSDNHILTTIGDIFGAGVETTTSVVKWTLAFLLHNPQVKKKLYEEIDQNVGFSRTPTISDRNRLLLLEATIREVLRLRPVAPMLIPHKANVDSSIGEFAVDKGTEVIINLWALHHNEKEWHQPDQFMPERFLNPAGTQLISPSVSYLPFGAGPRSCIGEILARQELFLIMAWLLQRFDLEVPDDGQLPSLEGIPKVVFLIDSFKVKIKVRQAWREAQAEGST
The data set can be described thus: CYP17A1 inhibition (CYP17A1 bactosomes, progesterone substrate, LC-MS/MS). It is filed as biochemical. Also noted: purchased Cypex, Dundee, UK; host or cells: bacterial membranes (bactosomes).
Description: CYP17A1 inhibition was measured using 20 pmol/ml CYP17A1 bactosomes (Cypex, Dundee, UK) and 0.1 μM progesterone as a substrate and 1 mM NADPH in 50 mM potassium phosphate buffer pH 7.4 containing 5 mM magnesium chloride. Inhibitors were dissolved in DMSO and serially diluted in seven ½ log steps, final concentrations ranging from 50 μM to 50 nM. Reaction volume was 100 μl and final DMSO concentration was 1% (v/v). Reactions were started by the addition of NADPH and incubated at 37° C. for 20 minutes with shaking at 1800 rpm on a Bioshake IQ (Q-Instruments, Jena, Germany). Reactions were terminated by the addition of 200 μl methanol containing 1 μM tolbutamide as an internal standard.

Data set [2] deals with T2, CYP3A4 (Homo sapiens, UniProt P08684).
T2 construct: purchased Cypex, Dundee CYP/XG001, Batch XG001001; host or cells: E. coli
T2 sequence (P08684 whole entry): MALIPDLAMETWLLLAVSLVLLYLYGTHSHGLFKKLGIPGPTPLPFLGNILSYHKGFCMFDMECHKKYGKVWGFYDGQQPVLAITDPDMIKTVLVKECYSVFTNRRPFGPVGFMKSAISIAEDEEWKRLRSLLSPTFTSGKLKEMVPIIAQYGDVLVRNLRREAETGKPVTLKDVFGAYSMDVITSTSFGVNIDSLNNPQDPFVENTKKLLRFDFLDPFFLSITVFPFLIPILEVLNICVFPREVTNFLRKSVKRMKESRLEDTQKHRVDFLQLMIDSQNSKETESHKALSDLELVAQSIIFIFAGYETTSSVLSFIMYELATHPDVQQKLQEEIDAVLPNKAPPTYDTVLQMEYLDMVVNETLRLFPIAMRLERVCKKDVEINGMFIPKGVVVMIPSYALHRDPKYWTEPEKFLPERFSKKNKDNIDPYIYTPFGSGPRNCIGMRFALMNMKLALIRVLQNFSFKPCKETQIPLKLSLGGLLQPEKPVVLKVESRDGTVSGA
The data set can be described thus: CYP inhibition, 5 CYP bactosome mix: CYP3A4 (midazolam). It is filed as in vitro ADME. As to conditions: midazolam 2.5 μM.
Description: (§1) CYP Inhibition Against Major 5 Human Liver CYPs in E. coli CYPEX Membranes
The final DMSO concentration was 1%.

Data set [3] relates to CYP1A2, CYP2C9, CYP2C19, CYP2D6, and CYP3A4. The data set can be described thus: CYP inhibition against major 5 human liver CYPs (panel, summary in words). It is filed as in vitro ADME. As to conditions: drug-drug interaction remark.
The target of data set [4] is T3, CYP2D6 (Homo sapiens, UniProt P10635).
T3 construct: purchased Cypex, Dundee CYP/XG001, Batch XG001001; host or cells: E. coli
T3 sequence (P10635 whole entry): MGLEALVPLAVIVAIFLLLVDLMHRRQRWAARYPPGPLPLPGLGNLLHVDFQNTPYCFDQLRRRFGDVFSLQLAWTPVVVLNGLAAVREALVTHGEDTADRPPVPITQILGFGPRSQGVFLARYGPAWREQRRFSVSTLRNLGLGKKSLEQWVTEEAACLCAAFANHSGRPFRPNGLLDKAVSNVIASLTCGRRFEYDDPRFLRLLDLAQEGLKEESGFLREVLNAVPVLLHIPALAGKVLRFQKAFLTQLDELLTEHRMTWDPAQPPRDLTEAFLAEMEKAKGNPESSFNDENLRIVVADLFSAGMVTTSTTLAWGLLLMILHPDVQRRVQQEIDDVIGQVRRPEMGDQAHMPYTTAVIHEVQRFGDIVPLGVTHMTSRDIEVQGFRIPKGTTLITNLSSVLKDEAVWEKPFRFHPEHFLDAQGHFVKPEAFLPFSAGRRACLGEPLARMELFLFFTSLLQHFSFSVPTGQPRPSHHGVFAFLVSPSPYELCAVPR
The data set can be described thus: CYP inhibition, 5 CYP bactosome mix: CYP2D6 (bufuralol). As to conditions: bufuralol 10 μM. It is filed as in vitro ADME.
Description: as §1
The final DMSO concentration was 1%.

The target of data set [5] is T4, CYP2C19 (Homo sapiens, UniProt P33261).
T4 construct: purchased Cypex, Dundee CYP/XG001, Batch XG001001; host or cells: E. coli
T4 sequence (P33261 whole entry): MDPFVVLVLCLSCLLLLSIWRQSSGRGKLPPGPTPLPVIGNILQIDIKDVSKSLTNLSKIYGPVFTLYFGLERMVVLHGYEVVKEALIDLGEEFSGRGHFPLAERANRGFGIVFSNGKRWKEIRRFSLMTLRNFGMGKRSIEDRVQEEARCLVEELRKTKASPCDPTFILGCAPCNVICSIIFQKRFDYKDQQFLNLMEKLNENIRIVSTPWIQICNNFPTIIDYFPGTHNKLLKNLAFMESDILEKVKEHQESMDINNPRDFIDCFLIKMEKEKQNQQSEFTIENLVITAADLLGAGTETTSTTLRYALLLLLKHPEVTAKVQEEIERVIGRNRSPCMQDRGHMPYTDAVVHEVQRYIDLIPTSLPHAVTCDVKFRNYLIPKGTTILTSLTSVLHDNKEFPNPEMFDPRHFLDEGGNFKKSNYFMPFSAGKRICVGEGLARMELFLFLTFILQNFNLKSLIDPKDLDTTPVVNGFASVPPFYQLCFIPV
Description: CYP inhibition, 5 CYP bactosome mix: CYP2C19 ((S)-mephenytoin). The following applies: (S)-mephenytoin 40 μM. It is filed as in vitro ADME.
Description: as §1
The final DMSO concentration was 1%.

Data set [6] is described as follows: Solubility in DMSO. It is filed as physicochemical.
The nature of data set [7]: Toxicity studies.
The target in data set [8] is T5, CYP1A2 (Homo sapiens, UniProt P05177).
T5 construct: purchased Cypex, Dundee CYP/XG001, Batch XG001001; host or cells: E. coli
T5 sequence (P05177 1-516): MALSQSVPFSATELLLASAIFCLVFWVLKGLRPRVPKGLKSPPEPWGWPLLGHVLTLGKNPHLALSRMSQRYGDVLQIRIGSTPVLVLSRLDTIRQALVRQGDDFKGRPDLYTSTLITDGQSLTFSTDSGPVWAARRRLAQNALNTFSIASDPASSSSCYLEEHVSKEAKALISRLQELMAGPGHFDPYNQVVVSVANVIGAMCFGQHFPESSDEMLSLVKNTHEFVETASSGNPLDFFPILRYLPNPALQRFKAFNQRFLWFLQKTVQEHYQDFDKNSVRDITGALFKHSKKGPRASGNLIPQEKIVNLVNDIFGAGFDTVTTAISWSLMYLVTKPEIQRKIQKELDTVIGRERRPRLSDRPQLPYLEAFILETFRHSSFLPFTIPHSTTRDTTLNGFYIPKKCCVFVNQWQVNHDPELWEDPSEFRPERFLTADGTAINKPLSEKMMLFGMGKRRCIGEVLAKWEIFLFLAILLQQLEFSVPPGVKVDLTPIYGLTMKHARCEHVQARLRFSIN
Description: CYP inhibition, 5 CYP bactosome mix: CYP1A2 (tacrine). It is filed as in vitro ADME. The following applies: tacrine 0.5 μM.
Description: as §1
The final DMSO concentration was 1%.

In data set [9] the target is T6, CYP19A1 (Homo sapiens, UniProt P11511).
T6 sequence (P11511 1-503): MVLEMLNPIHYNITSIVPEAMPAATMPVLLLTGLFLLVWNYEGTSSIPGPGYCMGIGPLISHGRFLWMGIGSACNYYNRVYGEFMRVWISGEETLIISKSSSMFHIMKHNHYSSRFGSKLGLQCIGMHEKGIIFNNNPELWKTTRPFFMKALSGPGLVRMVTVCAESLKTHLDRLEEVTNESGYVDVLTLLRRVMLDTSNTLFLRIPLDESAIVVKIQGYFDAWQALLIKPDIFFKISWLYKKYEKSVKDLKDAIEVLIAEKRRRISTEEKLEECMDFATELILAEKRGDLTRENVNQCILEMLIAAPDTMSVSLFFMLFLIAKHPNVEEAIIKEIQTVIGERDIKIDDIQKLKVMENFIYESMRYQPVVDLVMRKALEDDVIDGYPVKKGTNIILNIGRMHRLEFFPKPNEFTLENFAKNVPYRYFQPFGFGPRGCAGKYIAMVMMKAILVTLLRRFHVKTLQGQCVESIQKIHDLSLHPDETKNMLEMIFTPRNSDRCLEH
The data set can be described thus: CYP19A1 inhibition (CYP19/MFC High Throughput Inhibitor Screen Kit, fluorescence). It is filed as biochemical. How it is done: Test compounds and control inhibitors were prepared as stocks in either Acetonitrile or DMSO from the solid compound. Compounds were serially diluted in ½ log steps in the same solvent.
CYP19A1 inhibition experiments were performed using the CYP19/MFC High Throughput Inhibitor Screen Kit (Corning).
CYP19A1 reactions were performed in black 96 well-plates (Greiner) according to the manufacturer's instructions. […] Final organic solvent concentrations were either 4% (v/v) acetonitrile or 0.5% (v/v) Dimethyl sulfoxide. The plates were covered with self-adhesive film lids and incubated for 10 minutes at 37° C. Reactions were terminated by the addition of 75 μl Stop Solution (100 mM Tris base in acetonitrile: MilliQ water (80:20).
Fluorescence of 7-Hydroxy-4-trifluoromethylcoumarin (HFC) was measured on a SpectraMax® i3x (Molecular Devices) using 409 nm and 530 nm as excitation and emission wavelengths, respectively.
The CYP activities for each test compound/positive control inhibitor at each concentration were converted to % of control activity (CA). The LC-MS/MS peak responses (CYP metabolite peak area/internal standard peak area) for each test compound or positive control inhibitor were used and the response for each sample was expressed as a percentage of an uninhibited control (DMSO incubation). The data were then expressed as (log(CA/100-CA) and used to generate a pseudo-Hill plot, the slope and y axis intercept are used to calculate the IC50-value according to the following equation.

Data set [10] concerns the target T7, CYP2C9 (Homo sapiens, UniProt P11712).
T7 construct: purchased Cypex, Dundee CYP/XG001, Batch XG001001; host or cells: E. coli
The data set can be described thus: CYP inhibition, 5 CYP bactosome mix: CYP2C9 (diclofenac). It is filed as in vitro ADME. The following applies: diclofenac 2 μM.
Description: as §1
The final DMSO concentration was 1%.

pIC50: −log10 of the molar value. Like-named read-outs stand apart in the source and are kept apart here. Bounds are passed on as bounds.

T7 sequence (P11712 whole entry): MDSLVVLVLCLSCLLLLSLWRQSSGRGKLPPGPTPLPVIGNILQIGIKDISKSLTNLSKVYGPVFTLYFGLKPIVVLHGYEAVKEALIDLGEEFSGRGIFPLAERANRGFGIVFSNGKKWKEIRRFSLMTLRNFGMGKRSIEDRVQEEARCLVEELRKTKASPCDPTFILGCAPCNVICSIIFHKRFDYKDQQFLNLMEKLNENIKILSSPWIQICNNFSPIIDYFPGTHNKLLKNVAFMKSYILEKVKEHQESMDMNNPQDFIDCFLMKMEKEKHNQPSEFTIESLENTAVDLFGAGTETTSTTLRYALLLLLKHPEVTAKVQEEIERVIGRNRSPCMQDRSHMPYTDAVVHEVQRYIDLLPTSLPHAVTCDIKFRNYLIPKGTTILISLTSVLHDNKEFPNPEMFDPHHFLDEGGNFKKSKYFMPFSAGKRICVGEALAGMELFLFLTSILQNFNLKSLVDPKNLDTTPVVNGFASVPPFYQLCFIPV

Turning to `Cc1nc(SC(C(=O)c2c[nH]c3ccccc23)c2ccccc2)sc1CC(N)=O` (racemic) [Compound 3, 2-(2-{[2-(1H-indol-3-yl)-2-oxo-1-phenylethyl]sulfanyl}-4-methyl-1,3-thiazol-5-yl)acetamide], the pIC50 is less than 4.47 in [1] (20 pmol/ml bactosomes, 0.1 μM progesterone, 50 μM to 50 nM); 5.57 in [2]; 4.82 in data set [4]; 5.08 in data set [5]; 4.90 in data set [8]. Besides, the “inhibitory potency of CYP17A1 (in words)” value in data set [1] (summary of Table 2) is “micromolar levels”. In [3], the “inhibition of metabolic CYP450 isoforms (in words)” value (“inhibition” below) was “inhibit various CYP450 isoforms”. In addition, the “Soluble in DMSO” value in data set [6] is listed as “Yes”. Besides, in [7], the safety profile entry is listed as “reasonably good safety profiles”.
Turning to `Cc1cccc(C(=O)OCCOc2ccc(S(N)(=O)=O)cc2)c1N` [Compound 4, 2-(4-sulfamoylphenoxy)ethyl 2-amino-3-methylbenzoate], the pIC50 is 5.48 in [2], 4.36 in data set [9], 5.82 in [5] and 4.80 in [10]. In addition, the “inhibition” value in [3] was “inhibit various CYP450 isoforms”.
Take `O=C1COc2cc(NCc3cccc(C(=O)Nc4ccccc4O)c3)ccc2N1` [Compound 11, N-(2-hydroxyphenyl)-3-{[(3-oxo-3,4-dihydro-2H-1,4-benzoxazin-7-yl)amino]methyl}benzamide]: the pIC50 in data set [2] was 5.08; in [4], 5.57; in data set [9] (7.5 pmol/ml CYP19A1, 25 μM MFC, top concentration 50 μM (acetonitrile) or 25 μM (DMSO), read-out: CYP19A1 IC50) it was 5.07; in data set [5], 5.12; in data set [8] it was 4.57; in data set [10] it was 5.40. In addition, the “inhibition” value in data set [3] is “inhibit various CYP450 isoforms”.
